The values below come from paper PMC6663621 (Cancer, 2019).

The term Tmax denotes the time at which the peak concentration occurs. By Cmax is commonly meant the maximum level reached in the sampled fluid or tissue. Usually clearance stands for the volume of plasma or blood freed of the substance per unit of time.

Each structure is given as a SMILES string. “And” between values parts separate entries of the source, which are not always exact repeats. Identical values can stand only once. Like-named read-outs stand apart in the source and are kept apart here.

Data set [1] is described as follows: clinical. Particulars: human, plasma.
The mark [2] stands for this setting: plasma, Cohort 1, CC-486 dose 200 mg oral, Cycle 1 Day 1, actual values (n=2).
Setting [3] is: plasma, Cohorts 2 and 3, CC-486 dose 300 mg oral, Cycle 1 Day 1, mean ± SD.

On to `Nc1ncn([C@@H]2O[C@H](CO)[C@@H](O)[C@H]2O)c(=O)n1` [5-azacitidine], for which the “difference in dose-normalized exposure, apparent clearance, apparent volume of distribution or half-life” value (200 or 300 mg CC-486) is on record as “no difference”. Under setting [2], the AUCINF is 538 ng·h/mL; the Cl/F is 372 L/h and 373 L/h; the V/F is 293 L and 319 L; the t1/2 came to 0.59 h. Under setting [3], the Cl/F was 922 ± 892 (10) L/h and the V/F is reported as 731 ± 557 (10) L. In addition, in data set [1] (oral), the Tmax is about 1 h. In data set [1] (po, 200 mg), the highest concentration (Cmax) is 324 ± 157 ng/mL and the Tmax is 1 h. In addition, in data set [1] (po, 300 mg), the Cmax came out at 226 ± 130 ng/mL and the Tmax stood at 1.08 h.
`C/C=C1\NC(=O)[C@H]2CSSCC/C=C/[C@H](CC(=O)N[C@H](C(C)C)C(=O)N2)OC(=O)[C@H](C(C)C)NC1=O` [romidepsin]: in data set [1] (iv, 8 mg/m2), the peak level (Cmax) was 455 ± 255 ng/mL, the Tmax worked out at 4 h and the clearance was 178 mL/min.
